Experimental data published in PubChem BioAssay (NCI).
Values joined by “and” are separate entries in the source; they are usually repeats but may differ in a detail not shown here. Equal entries are not always repeated.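 Protocol summary: plate cells (96-well), add compound at 5 concentrations, incubate 48 h, interpolate endpoints linearly. GI50: concentration for 50% inhibition of growth. Definition used: TGI = concentration required for complete inhibition of growth.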

Assays:
Experiment in all cases: DTP human tumour cell line panel, 48 h
HCC-2998 colon = tested on: HCC-2998 colon
SK-OV-3 ovarian = tested on: SK-OV-3 ovarian
A498 renal = tested on: A498 renal
NCI-H226 lung = tested on: NCI-H226 lung
K-562 leukemia = tested on: K-562 leukemia
SF-539 CNS = tested on: SF-539 CNS
SNB-19 CNS = tested on: SNB-19 CNS
CAKI-1 renal = tested on: CAKI-1 renal
PC-3 prostate = tested on: PC-3 prostate
NCI-H460 lung = tested on: NCI-H460 lung
UACC-257 melanoma = tested on: UACC-257 melanoma
IGROV1 ovarian = tested on: IGROV1 ovarian
UO-31 renal = tested on: UO-31 renal
HS 578T breast = tested on: HS 578T breast
UACC-62 melanoma = tested on: UACC-62 melanoma
HOP-92 NSCLC = tested on: HOP-92 NSCLC
SK-MEL-5 melanoma = tested on: SK-MEL-5 melanoma
SF-295 CNS = tested on: SF-295 CNS
SK-MEL-2 melanoma = tested on: SK-MEL-2 melanoma
EKVX NSCLC = tested on: EKVX NSCLC
COLO 205 colon = tested on: COLO 205 colon
LOX IMVI melanoma = tested on: LOX IMVI melanoma
SNB-75 CNS = tested on: SNB-75 CNS
SF-268 CNS = tested on: SF-268 CNS
TK-10 renal = tested on: TK-10 renal
SN12C renal = tested on: SN12C renal
BT-549 breast = tested on: BT-549 breast
OVCAR-3 ovarian = tested on: OVCAR-3 ovarian
HOP-62 NSCLC = tested on: HOP-62 NSCLC

CC(=O)Oc1cc2c(OC(C)=O)c(-c3c(C)cc4c(C(C)C)c(OC(C)=O)c(OC(C)=O)cc4c3OC(C)=O)c(C)cc2c(C(C)C)c1OC(C)=O
TGI (HCC-2998 colon): 8.3 µM and 9.51 µM and 34.3 µM
GI50 (SK-OV-3 ovarian): 10.4 µM and 25.3 µM
TGI (SK-OV-3 ovarian): > 39.3 µM and 34.1 µM and 55.8 µM
GI50 (A498 renal): 4.91 µM and 4.51 µM and 11.5 µM
TGI (A498 renal): 10 µM and 11.7 µM and 37.3 µM
GI50 (NCI-H226 lung): 1.14 µM and 4.72 µM and 8.69 µM
TGI (NCI-H226 lung): 2.58 µM and 11.1 µM and 20.9 µM
GI50 (K-562 leukemia): 21.3 µM and 6.13 µM and 9.67 µM
TGI (K-562 leukemia): 63.1 µM and > 21.4 µM and 25.8 µM
GI50 (SF-539 CNS): 6.52 µM and 5.37 µM and 12.5 µM
TGI (SF-539 CNS): 12.5 µM and 10.5 µM and 31.3 µM
GI50 (SNB-19 CNS): 15.3 µM and 8.77 µM and 19.6 µM
TGI (SNB-19 CNS): > 31.7 µM and 25.2 µM and 47.5 µM
GI50 (CAKI-1 renal): 7.61 µM and 6.16 µM and 11.5 µM
TGI (CAKI-1 renal): 21.9 µM and 13.1 µM and 30.9 µM
GI50 (PC-3 prostate): 5.48 µM and 5.87 µM and 9.87 µM
TGI (PC-3 prostate): 10.9 µM and 12.1 µM and 23.2 µM
GI50 (NCI-H460 lung): 6.16 µM and 6.95 µM and 11.6 µM
TGI (NCI-H460 lung): 15.3 µM and 17.5 µM and 32.3 µM
GI50 (UACC-257 melanoma): 5.23 µM and 2.58 µM and 8.39 µM
TGI (UACC-257 melanoma): 14.4 µM and 10.5 µM and 25.6 µM
GI50 (IGROV1 ovarian): 16.2 µM and 3.27 µM and 25.8 µM
TGI (IGROV1 ovarian): 33.9 µM and 9.86 µM and 57.5 µM
GI50 (UO-31 renal): 5.73 µM and 5.67 µM and 11.8 µM
TGI (UO-31 renal): 13.3 µM and 11.9 µM and 33.8 µM
GI50 (HS 578T breast): 18.7 µM and 20.1 µM and 8.85 µM
TGI (HS 578T breast): 49.8 µM and 55.2 µM and 21.6 µM
GI50 (UACC-62 melanoma): 1.03 µM and 4.38 µM and 5.54 µM
TGI (UACC-62 melanoma): 2.2 µM and 8.65 µM and 11.7 µM
GI50 (HOP-92 NSCLC): 1.27 µM and 7.69 µM and 5.33 µM
TGI (HOP-92 NSCLC): 4.11 µM and 18 µM and 16.7 µM
GI50 (SK-MEL-5 melanoma): 17.4 µM and 4.66 µM and 7.79 µM
TGI (SK-MEL-5 melanoma): 33.2 µM and 9 µM and 17 µM
GI50 (SF-295 CNS): 8.78 µM and 5.99 µM and 10.7 µM
TGI (SF-295 CNS): 26.7 µM and 12.5 µM and 30.6 µM
GI50 (SK-MEL-2 melanoma): 7.83 µM and 10.8 µM
TGI (SK-MEL-2 melanoma): 31.8 µM
GI50 (EKVX NSCLC): 4.82 µM and 4.81 µM and 9.21 µM
TGI (EKVX NSCLC): 10.6 µM and 9.92 µM and 26.7 µM
GI50 (COLO 205 colon): 9.61 µM and 5.5 µM and 10.1 µM
TGI (COLO 205 colon): 13 µM and 21.3 µM
GI50 (LOX IMVI melanoma): 4.4 µM and 5.26 µM and 17.3 µM
TGI (LOX IMVI melanoma): 8.52 µM and 11.3 µM and 32 µM
GI50 (SNB-75 CNS): 2.32 µM and 13.7 µM and 16.3 µM
TGI (SNB-75 CNS): 24.9 µM and > 52.7 µM and 62.8 µM
GI50 (SF-268 CNS): 6.91 µM and 7.21 µM and 11.7 µM
TGI (SF-268 CNS): 39.7 µM and 29 µM and 37.4 µM
GI50 (TK-10 renal): 7.37 µM and 5.6 µM and 16.2 µM
TGI (TK-10 renal): 21.9 µM and 17.4 µM and > 42.8 µM
GI50 (SN12C renal): 1210 nM and 1220 nM and 6110 nM
TGI (SN12C renal): 2.44 µM and 8.04 µM and 12.8 µM
GI50 (BT-549 breast): 4.07 µM and 5.16 µM and 9.94 µM
TGI (BT-549 breast): 9.05 µM and 10.2 µM and 26.6 µM
GI50 (OVCAR-3 ovarian): 4.6 µM and 6.15 µM and 8.52 µM
TGI (OVCAR-3 ovarian): 13.1 µM and 11.5 µM and 21 µM
GI50 (HOP-62 NSCLC): 6.67 µM and 5.17 µM and 8.71 µM
TGI (HOP-62 NSCLC): 18.8 µM and 11.7 µM and 24.1 µM
